# According to the supplement of paper PMC5662764:
# ± gives the standard deviation of the averaged measurements.
# What was measured:
# Assay in all cases: normalised growth rate inhibition (GR value) relative to DMSO control (GR (1 = untreated growth, 0 = cytostasis, <0 = cytotoxic)); higher = less growth inhibition
# Conditions in all cases: 72 h
# BT20 = tested on: BT20
# Experimental: (§1)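 Breast cancer cell lines (BT-20, Hs 578T, MCF 10A, MCF7, MDA-MB-231, SK-BR-3) were plated in 384-well plates and treated 24 h later with drugs at six concentrations (0.04-10 µM). Viable cells were counted by Hoechst/dead-cell-stain imaging at 0 and 72 h. Counts were normalised to DMSO controls on the same plate to give the relative cell count and the growth-rate inhibition (GR) value; technical plate triplicates were averaged for each biological replicate.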
# MCF10A = tested on: MCF10A
# Experimental: as §1
# MCF7 = tested on: MCF7
# Experimental: as §1
# MDAMB231 = tested on: MDAMB231
# Experimental: as §1
# HS578T = tested on: HS578T
# Experimental: as §1
# SKBR3 = tested on: SKBR3
# Experimental: as §1
SMILES,normalised growth rate inhibition (BT20; 0.04 µM),normalised growth rate inhibition (BT20; 0.12 µM),normalised growth rate inhibition (BT20; 0.37 µM),normalised growth rate inhibition (BT20; 1.11 µM),normalised growth rate inhibition (BT20; 3.33 µM),normalised growth rate inhibition (BT20; 10 µM),normalised growth rate inhibition (MCF10A; 0.04 µM),normalised growth rate inhibition (MCF10A; 0.12 µM),normalised growth rate inhibition (MCF10A; 0.37 µM),normalised growth rate inhibition (MCF10A; 1.11 µM),normalised growth rate inhibition (MCF10A; 3.33 µM),normalised growth rate inhibition (MCF10A; 10 µM),normalised growth rate inhibition (MCF7; 0.04 µM),normalised growth rate inhibition (MCF7; 0.12 µM),normalised growth rate inhibition (MCF7; 0.37 µM),normalised growth rate inhibition (MCF7; 1.11 µM),normalised growth rate inhibition (MCF7; 3.33 µM),normalised growth rate inhibition (MCF7; 10 µM),normalised growth rate inhibition (MDAMB231; 0.04 µM),normalised growth rate inhibition (MDAMB231; 0.12 µM),normalised growth rate inhibition (MDAMB231; 0.37 µM),normalised growth rate inhibition (MDAMB231; 1.11 µM),normalised growth rate inhibition (MDAMB231; 3.33 µM),normalised growth rate inhibition (MDAMB231; 10 µM),normalised growth rate inhibition (HS578T; 0.04 µM),normalised growth rate inhibition (HS578T; 0.12 µM),normalised growth rate inhibition (HS578T; 0.37 µM),normalised growth rate inhibition (HS578T; 1.11 µM),normalised growth rate inhibition (HS578T; 3.33 µM),normalised growth rate inhibition (HS578T; 10 µM),normalised growth rate inhibition (SKBR3; 0.04 µM),normalised growth rate inhibition (SKBR3; 0.12 µM),normalised growth rate inhibition (SKBR3; 0.37 µM),normalised growth rate inhibition (SKBR3; 1.11 µM),normalised growth rate inhibition (SKBR3; 3.33 µM),normalised growth rate inhibition (SKBR3; 10 µM)
Cn1cc(-c2[nH]c3cc(NC(=O)[C@H](N)C4CCCCC4)cc4c3c2C=NNC4=O)cn1,0.886 ± 0.045,0.96 ± 0.035,0.9538 ± 0.0067,0.931 ± 0.027,0.8 ± 0.063,0.129 ± 0.15,0.9601 ± 0.0087,0.914 ± 0.022,0.83 ± 0.037,0.63 ± 0.071,0.267 ± 0.17,-0.0312 ± 0.061,0.579 ± 0.056,0.411 ± 0.041,0.335 ± 0.04,0.235 ± 0.032,0.178 ± 0.018,0.0527 ± 0.038,0.903 ± 0.039,0.913 ± 0.087,0.747 ± 0.14,0.535 ± 0.21,0.297 ± 0.22,-0.0135 ± 0.14,0.956 ± 0.018,0.601 ± 0.064,0.107 ± 0.12,-0.0219 ± 0.17,-0.0376 ± 0.14,-0.103 ± 0.15,-0.00482 ± 0.19,-0.09 ± 0.2,-0.136 ± 0.17,-0.151 ± 0.18,-0.174 ± 0.14,-0.183 ± 0.2
O=C(NOC[C@H](O)CO)c1ccc(F)c(F)c1Nc1ccc(I)cc1F,0.907 ± 0.095,0.864 ± 0.059,0.838 ± 0.1,0.708 ± 0.14,0.565 ± 0.086,0.439 ± 0.064,0.263 ± 0.072,0.184 ± 0.072,0.175 ± 0.077,0.134 ± 0.083,0.0915 ± 0.085,0.0555 ± 0.074,0.608 ± 0.044,0.539 ± 0.02,0.503 ± 0.05,0.442 ± 0.039,0.254 ± 0.06,0.0358 ± 0.091,0.605 ± 0.043,0.413 ± 0.029,0.264 ± 0.033,0.0779 ± 0.1,-0.0448 ± 0.12,-0.0975 ± 0.13,0.513 ± 0.088,0.402 ± 0.055,0.328 ± 0.023,0.247 ± 0.061,0.119 ± 0.078,0.0542 ± 0.11,0.953 ± 0.066,0.902 ± 0.057,0.913 ± 0.049,0.728 ± 0.027,0.445 ± 0.05,0.196 ± 0.14
O=c1[nH]c2ccccc2n1C1CCN(Cc2ccc(-c3[nH]c4cc5ncnc5cc4nc3-c3ccccc3)cc2)CC1 [AKT-inhibitor-1-2],0.831 ± 0.027,0.851 ± 0.026,0.921 ± 0.023,0.849 ± 0.015,0.872 ± 0.026,0.291 ± 0.052,0.994 ± 0.01,0.979 ± 0.01,0.9721 ± 0.0092,0.922 ± 0.048,0.945 ± 0.047,0.605 ± 0.15,0.749 ± 0.023,0.741 ± 0.034,0.701 ± 0.1,0.471 ± 0.066,0.436 ± 0.11,-0.0151 ± 0.17,0.874 ± 0.091,0.889 ± 0.086,0.918 ± 0.046,0.835 ± 0.083,0.888 ± 0.023,0.56 ± 0.11,0.9753 ± 0.0043,0.9556 ± 0.0094,0.933 ± 0.0086,0.857 ± 0.029,0.875 ± 0.024,0.388 ± 0.099,0.675 ± 0.14,0.759 ± 0.051,0.766 ± 0.021,0.587 ± 0.091,0.599 ± 0.027,0.299 ± 0.043
Oc1cccc(-c2nc(N3CCOCC3)c3oc4ncccc4c3n2)c1 [PI-103],0.949 ± 0.084,0.723 ± 0.26,0.357 ± 0.32,0.0983 ± 0.17,-0.0552 ± 0.017,-0.115 ± 0.034,0.96 ± 0.066,0.76 ± 0.22,0.427 ± 0.24,0.196 ± 0.067,0.125 ± 0.032,0.0826 ± 0.033,0.71 ± 0.14,0.379 ± 0.16,0.0687 ± 0.081,-0.0473 ± 0.051,-0.0779 ± 0.063,-0.153 ± 0.1,0.772 ± 0.075,0.637 ± 0.1,0.42 ± 0.25,0.371 ± 0.12,0.291 ± 0.18,0.0948 ± 0.18,0.676 ± 0.047,0.397 ± 0.075,0.249 ± 0.13,0.174 ± 0.16,0.148 ± 0.17,0.0951 ± 0.13,0.9 ± 0.045,0.579 ± 0.1,0.221 ± 0.052,-0.00817 ± 0.15,-0.0811 ± 0.2,-0.137 ± 0.17
